According to US20160311812A1, “ADENOSINE A1 AGONISTS AS MEDICAMENTS FOR KIDNEY DISORDERS” (BAYER PHARMA AKTIENGESELLSCHAFT, priority 2013, published 2016):

Assays:
[1] = test system: 5/6 nephrectomy rat model; assay: Functional and structural renal dysfunction in 5/6 nephrectomized rats; type: in vivo; details: 4 weeks; for End organ injury marker concentration in the urine: hFABP / End organ injury marker concentration in the urine: hFABP per creatinine: ELISA; for Kidney injury marker-1 [gene expression] / Lipocalin-2 [gene expression] / Osteopontin [gene expression]: renal cortex
Excerpt: B-3. Effects of Partial A1 Agonists on Renal and Cardiac Function in 5/6 Nephrectomized Rats (Example 1 for Chronic Kidney Disorder)
5/6 nephrectomy in the rat, in which one kidney and the renal cortex of the second kidney are surgically removed (=5/6 of functional kidney tissue) is an established animal model for interstitial renal fibrosis and chronic renal insufficiency [C. Fleck et al., “Suitability of 5/6 nephrectomy (5/6NX) for the induction of interstitial renal fibrosis in rats Influence of sex, strain, and surgical procedure”, Exp. Tox. Pathology 2006, 57, 195-205]. The model is characterized by progressive proteinuria, disturbed tubular electrolyte transport, a reduced glomerular filtration rate, an increase in urinary output, interstitial fibrosis with reactively occurring lymphocyte infiltrates, glomerulosclerosis and tubular atrophy. The level of proteinuria is a specific index of the renal function prognosis: the higher the proteinuria, the greater is the functional and structural kidney injury and therefore progression of chronic to terminal renal insufficiency (uraemia). During monitoring of therapy, e.g. with the ACE inhibitor enalapril, the course of proteinuria provides information on the functional and structural response to the therapy and thus on the renal function prognosis. As a result of the renal insufficiency and accumulation of umemic toxins, in the animals there is secondary development of a umemic cardiomyopathy, depending on the severity associated with hypertension, increased heart rate, reduced parasympathetic tone, myocardial, left-ventricular hypertrophy and fibrosis, diastolic dysfunction and an increased prevalence of arrhythmias [Svilerova et al. 2010 Physiol Res 59: S81-S88).
Procedure: male Wistar:WU rats (210-250 g) from Charles River had the left kidney and the renal cortex of the right kidney removed (=SNX) in one session; sham-operated rats served as control group (=SOP). The following groups, each with 12 rats per group, were investigated:
Group 2 SNX+placebo (60 g glycerol+100 g water+969 g PEG-400)
Group 3 SNX+10 mg/kg body weight/day enalapril (reference therapy, in the drinking water)
Group 4 SNX+0.1 mg/kg body weight/day partial A1 agonist EXAMPLE 1, p.o. in placebo
Group 5 SNX+1.0 mg/kg body weight/day partial A1 agonist EXAMPLE 1, p.o. in placebo
Group 6 SNX+0.3 mg/kg body weight/day partial A1 agonist EXAMPLE 4, p.o. in placebo
Group 7 SNX+3.0 mg/kg body weight/day partial A1 agonist EXAMPLE 4, p.o. in placebo
Three weeks after 5/6 nephrectomy, the rats developed manifest proteinuria, from this time point the rats were treated for a further four weeks corresponding to the groups stated above. At the end of the protocol, the following samples were obtained/measurements were carried out: eight-hour urine collection with determination of the concentration of hFABP in the urine by ELISA (Rat/Mouse h-FABP ELISA, Hycultbiotech), as marker for end organ damage, invasive measurement of the isoprenaline-induced increase (cumulatively 12.5 ng-250 ng/kg isoprenaline, i.v.) in systolic and diastolic left ventricular function, and TaqMan analyses of renal injury markers in the renal cortex.

[2] = test system: unilaterally nephrectomized SHR; assay: Functional and structural myocardial dysfunction in unilaterally nephrectomized spontaneously hypertensive rats; type: in vivo, rat; details: Group 4: SNX + 1.0 mg/kg body weight/day p.o., 4 weeks
Excerpt: (§1) B-4. Effects of Partial A1 Agonists on Renal and Cardiac Function in Unilaterally Nephrectomized and Spontaneously Hypertensive Rats (Example 2 for Chronic Kidney Disorders)
(§2) Unilaterally nephrectomized, spontaneously hypertensive rats (SHR) are an established animal model for investigating the development and progression of hypertensive damage of the glomeruli in the remaining kidney [H. Kinuno et al., “Effects of uninephrectomy on renal structural properties in spontaneously hypertensive rats”, Clin and Exp Pharmacol and Physiol 2005, 32, 173-178]. […] Furthermore, renal excretion of substances usually eliminated in the urine, such as creatinine and urea, is reduced and the electrolyte metabolism is disturbed, the latter being associated with volume retention.
(§3) Procedure: male SHR rats (180-220 g) from Taconic had the left kidney removed in one session (=UNX). Normotensive Wistar Kyoto rats (WKY) from Taconic served as control. The following groups, each with 12 rats per group, were investigated:
(§4) Group 2 UNX+placebo (60 g glycerol+100 g water+969 g PEG-400)
(§5) Group 3 UNX+10 mg/kg body weight/day enalapril (reference therapy, in the drinking water)
(§6) Group 4 SNX+1.0 mg/kg body weight/day partial A1 EXAMPLE 1, p.o. in placebo
(§7) Group 5 SNX+3.0 mg/kg body weight/day partial A1 EXAMPLE 4, p.o. in placebo
(§8) Three weeks after unilateral nephrectomy, the SHRs developed manifest hypertensive damage of the glomeruli in the remaining kidney, from this time point on the rats were treated for a further four weeks corresponding to the groups given above. At the end of the protocol, the following samples were obtained/measurements were carried out: eight-hour urine collection, invasive measurement of systolic and diastolic left ventricular function, and TaqMan analyses of renal injury markers in the renal cortex.

[3] = test system: unilaterally nephrectomized SHR; assay: Functional and structural renal dysfunction in unilaterally nephrectomized spontaneously hypertensive rats; type: in vivo, rat; details: Group 4: SNX + 1.0 mg/kg body weight/day p.o., 4 weeks
Excerpt: as §1, §2, §3, §4, §5, §6, §7, §8

[4] = Group 4: SNX + 0.1 mg/kg body weight/day p.o.
[5] = Group 5: SNX + 1.0 mg/kg body weight/day p.o.

N#Cc1c(N)nc(SCc2csc(-c3ccc(Cl)cc3)n2)c(C#N)c1-c1ccc(OCCO)cc1 [EXAMPLE 1, 2-Amino-6-({[2-(4-chlorophenyl)-1,3-thiazol-4-yl]methyl}sulphanyl)-4-[4-(2-hydroxyethoxy)phenyl]pyridine-3,5-dicarbonitrile]
P-creatinine [1, 4]: 66 ± 1 µmol/L
P-urea [1, 4]: 11 ± 0.5 mmol/L
U-creatinine [1, 4]: 2.4 ± 0.3 μmol/ml urine/kg BW/h
U-protein [1, 4]: 1.07 ± 0.28 μmol/ml urine/kg BW/h
U-sodium [1, 4]: 18 ± 3 μmol/ml urine/kg BW/h
U-urea [1, 4]: 260 ± 31 μmol/ml urine/kg BW/h
Urine volume [1, 4]: 2.2 ± 0.1 ml/kg BW/h
End organ injury marker concentration in the urine: hFABP [1, 4]: 1088 ± 159 pg hFABP/ml urine/h
End organ injury marker concentration in the urine: hFABP per creatinine [1, 4]: 194 ± 36 pg hFABP/μmol creatinine
Kidney injury marker-1 [gene expression] [1, 4]: 60 ± 17 rel. expression
Lipocalin-2 [gene expression] [1, 4]: 307 ± 51 rel. expression
Osteopontin [gene expression] [1, 4]: 6008 ± 1209 rel. expression
P-creatinine [1, 5]: 63 ± 1 µmol/L
P-urea [1, 5]: 11 ± 0.3 mmol/L
U-creatinine [1, 5]: 2.3 ± 0.3 μmol/ml urine/kg BW/h
U-protein [1, 5]: 0.75 ± 0.14 μmol/ml urine/kg BW/h
U-sodium [1, 5]: 31 ± 3 μmol/ml urine/kg BW/h
U-urea [1, 5]: 264 ± 35 μmol/ml urine/kg BW/h
Urine volume [1, 5]: 2.0 ± 0.2 ml/kg BW/h
End organ injury marker concentration in the urine: hFABP [1, 5]: 1136 ± 229 pg hFABP/ml urine/h
End organ injury marker concentration in the urine: hFABP per creatinine [1, 5]: 175 ± 39 pg hFABP/μmol creatinine
Kidney injury marker-1 [gene expression] [1, 5]: 62 ± 13 rel. expression
Lipocalin-2 [gene expression] [1, 5]: 313 ± 65 rel. expression
Osteopontin [gene expression] [1, 5]: 5476 ± 1131 rel. expression
Diastolic blood pressure [2]: 112 ± 6 mmHg
Heart rate [2]: 295 ± 11 beats/min
Left ventricular hypertrophy (LVS/RV ratio, mg/mg) [2]: 4.3 ± 0.2 mg/mg
Left-ventricular end-diastolic pressure [2]: 8.5 ± 1.3 mmHg
Left-ventricular pressure [2]: 169 ± 8 mmHg
Pressure decrease over time [2]: −10181 ± 523 mmHg/s
Pressure increase over time [2]: 7943 ± 512 mmHg/s
Systolic blood pressure [2]: 171 ± 8 mmHg
P-creatinine [3]: 62 ± 1.1 mmol/L
P-urea [3]: 9.3 ± 0.4 mmol/L
U-creatinine [3]: 2.1 ± 0.4 μmol/ml urine/kg BW/h
U-protein [3]: 0.53 ± 0.10 μmol/ml urine/kg BW/h
U-sodium [3]: 37 ± 9 μmol/ml urine/kg BW/h
U-urea [3]: 186 ± 31 μmol/ml urine/kg BW/h
Urine volume [3]: 2.1 ± 0.2 ml/kg BW/h
CYR61 [gene expression] ([3]; renal cortex): 395 ± 47 rel. expression
Lipocalin-2 [gene expression] ([3]; renal cortex): 160 ± 24 rel. expression
